Measurements taken from publication PMC4541407 (2015).

Legend:
[1] = system: c-MYC (DNA, G4) TGAGGGTGGGTAGGGTGGGTAA; assay: fluorescence titration; settings: 100 mM Tris-HCl pH 7.4, 25 °C; for KD: 100 mM K+, 1.0 µM ligand, DNA 0-6 equiv
[2] = system: c-KIT1 (dual labelled) (DNA, G4) GGGAGGGCGCTGGGAGGGAGGG; assay: FRET melting
[3] = system: c-MYC (dual labelled) (DNA, G4) TGAGGGTGGGTAGGGTGGGTAA; assay: FRET melting
[4] = system: ds DNA (dual labelled) (DNA, duplex) CCAGTTCGTAGTAACCC/GGGTTACTACGAACTGG; assay: FRET melting; settings: 50 mM K+, 50 mM potassium cacodylate pH 7.4
[5] = system: c-KIT2 (DNA, G4) GGGCGGGCGCGAGGGAGGGG; assay: fluorescence titration; settings: 100 mM K+; 100 mM Tris-HCl pH 7.4, 25 °C; 1.0 µM ligand, DNA 0-6 equiv
[6] = system: c-KIT2 (dual labelled) (DNA, G4) GGGCGGGCGCGAGGGAGGGG; assay: FRET melting
[7] = system: ds DNA (DNA, duplex) CCAGTTCGTAGTAACCC/GGGTTACTACGAACTGG; assay: fluorescence titration; settings: 100 mM K+; 100 mM Tris-HCl pH 7.4, 25 °C; 1.0 µM ligand, DNA 0-6 equiv
[8] = system: c-KIT1 (DNA, G4) GGGAGGGCGCTGGGAGGGAGGG; assay: fluorescence titration; settings: 100 mM K+; 100 mM Tris-HCl pH 7.4, 25 °C; 1.0 µM ligand, DNA 0-6 equiv
[9] = system: c-MYC (NMR oligonucleotide) (DNA, G4) TGAGGGTGGGTAGGGTGGGTAA; assay: 1H NMR imino titration
[10] = 50 mM K+, 50 mM potassium cacodylate pH 7.4, 1.0 µM ligand

KD [1] [nM] | binding ([1]; no added K+, 5.5-fold enhancement, 25 nm blue shift, Kd n.d.) | ΔTm ([2]; 50 mM K+, 50 mM potassium cacodylate pH 7.4, 750 nM ligand, maximum measurable shift) [K] | binding ([2]; no added K+, MQ water pH 7.4, saturation at 1 µM ligand) | ΔTm ([3]; 50 mM K+, 50 mM potassium cacodylate pH 7.4, 100 nM ligand, maximum measurable shift) [K] | binding ([3]; no added K+, MQ water pH 7.4, saturation at 250 nM ligand) | binding ([4]; up to 1.0 µM ligand) | KD [5] [nM] | ΔTm ([6]; 50 mM K+, 50 mM potassium cacodylate pH 7.4, 500 nM ligand, maximum measurable shift) [K] | binding ([6]; no added K+, MQ water pH 7.4, saturation at 750 nM ligand) | Kd [7] [nM] | KD [8] [nM] | binding ([9]; 100 mM K+, 25 mM Tris-HCl pH 7.4, 298 K, 100 µM DNA, binds minor conformation) | binding ([9]; no added K+, 25 mM Tris-HCl pH 7.4, 298 K, 100 µM DNA, binds minor conformation) | binding [3, 10] | binding ([9]; 100 mM K+, 25 mM Tris-HCl pH 7.4, stabilizes minor conformation(s)) | binding [2, 10] | binding ([4]; 1.0 µM ligand) | binding [6, 10] | SMILES
300 ± 15 | yes | 39.4 ± 2.5 | yes | 22.7 ± 1.4 | yes | no | 1370 ± 60 | 23.2 ± 1.6 | yes | > 10000 | 1380 ± 70 | yes | yes | – | – | – | – | – | CN(C)CCCNC(=O)c1ccc(-n2cc(-c3ccc4c(c3)c3cc(-c5cn(-c6ccc(C(=O)NCCCN(C)C)cc6)nn5)ccc3n4CCCN(C)C)nn2)cc1
> 20000 | – | – | – | – | – | – | – | – | – | – | – | – | – | yes | yes | – | – | – | CN(C)CCCn1c2ccc(-c3cn(-c4ccc(N)cc4)nn3)cc2c2cc(-c3cn(-c4ccc(N)cc4)nn3)ccc21
– | – | – | – | – | – | – | – | – | – | – | – | – | – | no | – | no | no | no | C#Cc1ccc2c(c1)c1cc(C#C)ccc1n2CCCN(C)C
